The results in this text go back to publication PMC12136037, “Type II kinase inhibitors that target Parkinson’s disease–associated LRRK2” (Science Advances, 2025).

SMILES strings stand for the structures. Where “and” joins values, the source holds several entries; their conditions need not be identical. Equal entries are not always repeated.

One test concerns the target T1, LRRK2^KW (Homo sapiens, UniProt Q5S007).
T1 construct: LRRK2 R1847 to E2527; His6-Z-tag (TEV cleavable) (N, cleaved yes); host or cells: Sf9 insect cells (baculovirus)
T1 sequence (Q5S007 1847-2527): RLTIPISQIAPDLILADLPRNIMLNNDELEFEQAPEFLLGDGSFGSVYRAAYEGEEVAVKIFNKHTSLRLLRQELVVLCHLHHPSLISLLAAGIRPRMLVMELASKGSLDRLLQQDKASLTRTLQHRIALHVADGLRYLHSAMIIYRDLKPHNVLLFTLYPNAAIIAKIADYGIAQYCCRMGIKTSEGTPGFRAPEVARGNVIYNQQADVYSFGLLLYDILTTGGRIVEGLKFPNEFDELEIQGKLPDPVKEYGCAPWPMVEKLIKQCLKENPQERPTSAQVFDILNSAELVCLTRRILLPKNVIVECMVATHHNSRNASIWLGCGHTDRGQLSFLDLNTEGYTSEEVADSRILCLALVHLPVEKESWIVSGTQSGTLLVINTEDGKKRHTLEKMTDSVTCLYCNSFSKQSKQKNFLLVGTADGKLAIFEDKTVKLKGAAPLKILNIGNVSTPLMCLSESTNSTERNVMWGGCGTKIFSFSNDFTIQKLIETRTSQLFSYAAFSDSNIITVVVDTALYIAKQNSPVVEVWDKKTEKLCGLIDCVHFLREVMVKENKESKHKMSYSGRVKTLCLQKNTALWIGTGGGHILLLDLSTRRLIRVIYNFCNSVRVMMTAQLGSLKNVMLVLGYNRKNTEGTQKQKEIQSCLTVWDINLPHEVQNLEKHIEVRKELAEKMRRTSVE
Briefly: DSF thermal stabilization of LRRK2^KW. The conditions noted are these: DSF, LRRK2^KW, 10 μM inhibitor. In kind it is binding. The method in brief: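 DSF on 4 μM LRRK2^KW in 20 mM Hepes pH 7.4, 150 mM NaCl, 0.5 mM TCEP, 0.5% glycerol, 20 μM GDP, 2.5 mM MgCl2 with SYPRO Orange; inhibitor at 10 μM. Tm was taken as the minimum of the first derivative of fluorescence versus temperature, relative to control.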

The target in another test is T2, LRRK2^RCKW (Homo sapiens, UniProt Q5S007).
T2 construct: LRRK2 R1327 to E2527; His6-Z-tag (TEV cleavable) (N, cleaved yes); host or cells: Sf9 insect cells (baculovirus)
T2 sequence (Q5S007 1327-2527): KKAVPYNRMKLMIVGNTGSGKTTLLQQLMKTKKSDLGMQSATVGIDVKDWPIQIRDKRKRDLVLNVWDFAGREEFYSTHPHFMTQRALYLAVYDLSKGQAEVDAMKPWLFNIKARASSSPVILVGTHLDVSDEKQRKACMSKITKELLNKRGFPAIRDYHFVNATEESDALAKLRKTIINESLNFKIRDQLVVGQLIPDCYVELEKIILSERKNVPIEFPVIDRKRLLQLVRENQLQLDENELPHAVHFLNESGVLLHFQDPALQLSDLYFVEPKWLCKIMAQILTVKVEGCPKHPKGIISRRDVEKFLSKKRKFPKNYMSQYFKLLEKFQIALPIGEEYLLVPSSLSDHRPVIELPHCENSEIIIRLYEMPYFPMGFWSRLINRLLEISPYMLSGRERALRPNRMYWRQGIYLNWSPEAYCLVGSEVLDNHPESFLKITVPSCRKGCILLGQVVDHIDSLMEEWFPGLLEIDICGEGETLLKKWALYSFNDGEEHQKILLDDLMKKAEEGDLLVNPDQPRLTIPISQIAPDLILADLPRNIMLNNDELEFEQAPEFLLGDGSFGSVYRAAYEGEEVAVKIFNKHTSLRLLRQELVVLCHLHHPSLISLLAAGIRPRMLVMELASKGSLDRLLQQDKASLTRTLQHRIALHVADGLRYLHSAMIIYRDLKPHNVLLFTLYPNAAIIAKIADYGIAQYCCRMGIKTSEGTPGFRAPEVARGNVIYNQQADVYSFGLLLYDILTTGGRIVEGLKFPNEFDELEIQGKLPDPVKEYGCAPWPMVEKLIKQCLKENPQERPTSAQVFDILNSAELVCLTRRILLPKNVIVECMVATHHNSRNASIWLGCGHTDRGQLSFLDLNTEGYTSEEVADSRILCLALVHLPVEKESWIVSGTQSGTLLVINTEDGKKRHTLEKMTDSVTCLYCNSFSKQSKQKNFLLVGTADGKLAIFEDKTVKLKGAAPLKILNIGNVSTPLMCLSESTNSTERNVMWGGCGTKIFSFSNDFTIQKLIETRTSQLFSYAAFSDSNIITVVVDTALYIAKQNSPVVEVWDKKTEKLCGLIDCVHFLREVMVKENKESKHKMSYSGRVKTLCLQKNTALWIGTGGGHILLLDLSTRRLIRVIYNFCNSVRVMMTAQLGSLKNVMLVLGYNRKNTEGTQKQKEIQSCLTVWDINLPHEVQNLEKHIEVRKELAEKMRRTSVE
Put plainly: Biochemical LRRK2 activity assay (PhosphoSense, AssayQuant SOX peptide AQT0615). Particulars: for IC50: LRRK2^RCKW kinase activity, in vitro; for normalized response (LRRK2 activity): normalized to 0% (no kinase) and 100% (no inhibitor) control, two singlicate columns per compound. In outline:
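Controls lacked protein and compound (0%) or compound only (100%). IC50 derived by nonlinear regression of normalized response versus log[inhibitor].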

Consider `O=C(Nc1ccccc1)C1(C(=O)Nc2cccc(-c3c[nH]c4ncnc(N5CCOCC5)c34)c2)CC1` [Compound 12], for which the “∆Tm (K)” value on LRRK2^KW amounted to 9.3 K. Also, on LRRK2^RCKW, the IC50 (in general, the concentration needed to halve the response being measured) came to 350 ± 25 nM. For the same molecule, the “normalized response (LRRK2 activity)” value at LRRK2^RCKW (log[inhibitor(mol)] -4.82391) was 0.1647% and -9.791%; on LRRK2^RCKW (log[inhibitor(mol)] -5.12494) it was -4.574% and -1.793%; on LRRK2^RCKW (log[inhibitor(mol)] -5.60206), 1.386% and 6.849%; on LRRK2^RCKW (log[inhibitor(mol)] -6.30103) it was 35.45% and 38.9177%; on LRRK2^RCKW (log[inhibitor(mol)] -6.90309), 76.566% and 79.9356%; at LRRK2^RCKW (log[inhibitor(mol)] -7.30103), 91.6032% and 94.9482%. For the same molecule, the “normalized response (LRRK2 activity)” value on LRRK2^RCKW (log[inhibitor(mol)] -7.60206) is 99.2139% and 97.704%; on LRRK2^RCKW (log[inhibitor(mol)] -8.09691), 99.3121% and 101.951%; at LRRK2^RCKW (log[inhibitor(mol)] -8.61979), 104.222% and 110.035%; at LRRK2^RCKW (log[inhibitor(mol)] -9.09691), 103.486% and 106.278%; at LRRK2^RCKW (log[inhibitor(mol)] -9.39794), 106.585% and 109.47%.
Regarding `Cc1ccc(C(=O)Nc2ccc(CN3CCN(C)CC3)c(C(F)(F)F)c2)cc1C#Cc1c[nH]c2ncnc(N3CCOCC3)c12` [Compound 1], the “∆Tm (K)” value at LRRK2^KW is recorded as 9.5 K. This molecule also displayed an IC50 against LRRK2^RCKW of 756 ± 20 nM. Moreover, the “normalized response (LRRK2 activity)” value at LRRK2^RCKW (log[inhibitor(mol)] -5.12494) was 7.718% and 4.844%; on LRRK2^RCKW (log[inhibitor(mol)] -5.60206), 24.5327% and 23.4304%; at LRRK2^RCKW (log[inhibitor(mol)] -6.30103), 59.5875% and 59.3462%; at LRRK2^RCKW (log[inhibitor(mol)] -6.90309), 87.2332% and 86.1364%; on LRRK2^RCKW (log[inhibitor(mol)] -7.30103) it was 105.83% and 97.719%; on LRRK2^RCKW (log[inhibitor(mol)] -7.60206), 93.8691% and 88.2314%. Also, the “normalized response (LRRK2 activity)” value on LRRK2^RCKW (log[inhibitor(mol)] -8.09691) is 93.7155% and 94.1323%; at LRRK2^RCKW (log[inhibitor(mol)] -8.61979), 97.5599% and 105.43%; at LRRK2^RCKW (log[inhibitor(mol)] -9.09691) it was 94.6588% and 101.816%; on LRRK2^RCKW (log[inhibitor(mol)] -9.39794) it was 98.0974% and 115.57%.
In the case of `Cc1cc(F)ccc1NC(=O)C1(C(=O)Nc2cccc(-c3c[nH]c4ncnc(N5CCOCC5)c34)c2)CC1` [Compound 24], the “∆Tm (K)” value on LRRK2^KW was determined as 8.5 K. Further, the IC50 against LRRK2^RCKW worked out at 1190 ± 231 nM. Further, the “normalized response (LRRK2 activity)” value on LRRK2^RCKW (log[inhibitor(mol)] -5.12494) was 6.394% and 5.578%; on LRRK2^RCKW (log[inhibitor(mol)] -5.60206) it was 30.1593% and 37.3588%; on LRRK2^RCKW (log[inhibitor(mol)] -6.30103) it was 66.9115% and 76.4371%; on LRRK2^RCKW (log[inhibitor(mol)] -6.90309), 91.3884% and 99.1893%; on LRRK2^RCKW (log[inhibitor(mol)] -7.30103), 98.0109% and 87.3375%; at LRRK2^RCKW (log[inhibitor(mol)] -7.60206) it was 102.16% and 100.865%. The “normalized response (LRRK2 activity)” value at LRRK2^RCKW (log[inhibitor(mol)] -8.09691) was 98.4037% and 99.8706%; at LRRK2^RCKW (log[inhibitor(mol)] -8.61979), 99.6435% and 101.436%; at LRRK2^RCKW (log[inhibitor(mol)] -9.39794), 101.258% and 60.2522%.
`O=C(Nc1cc(F)cc(Br)c1)C1(C(=O)Nc2cccc(-c3c[nH]c4ncnc(N5CCOCC5)c34)c2)CC1` [Compound 27]: the “∆Tm (K)” value at LRRK2^KW came out at 10.2 K. Further, the IC50 against LRRK2^RCKW came to 1960 ± 652 nM. The “normalized response (LRRK2 activity)” value was 9.9531% and 0.1682% on LRRK2^RCKW (log[inhibitor(mol)] -4.82391); 15.329% and 15.4402% at LRRK2^RCKW (log[inhibitor(mol)] -5.12494); 51.4182% and 54.957% on LRRK2^RCKW (log[inhibitor(mol)] -5.60206); 74.2368% and 85.6074% on LRRK2^RCKW (log[inhibitor(mol)] -6.30103); 93.8115% and 94.6865% on LRRK2^RCKW (log[inhibitor(mol)] -6.90309); 93.6955% and 101.281% at LRRK2^RCKW (log[inhibitor(mol)] -7.30103). The “normalized response (LRRK2 activity)” value on LRRK2^RCKW (log[inhibitor(mol)] -7.60206) is 91.0994% and 95.9483%; at LRRK2^RCKW (log[inhibitor(mol)] -8.09691), 92.7092% and 88.0778%; on LRRK2^RCKW (log[inhibitor(mol)] -8.61979), 94.7784% and 93.0186%; on LRRK2^RCKW (log[inhibitor(mol)] -9.09691), 131.133% and 93.2265%; on LRRK2^RCKW (log[inhibitor(mol)] -9.39794) it was 94.4883% and 98.7958%.
On to `O=C(Nc1ccc(Cl)cc1)C1(C(=O)Nc2cccc(-c3c[nH]c4ncnc(N5CCOCC5)c34)c2)CC1` [Compound 13], for which the “∆Tm (K)” value on LRRK2^KW stood at 9.5 K. This molecule registered an IC50 on LRRK2^RCKW of 717 ± 14 nM. Further, the “normalized response (LRRK2 activity)” value is 15.0853% and 13.379% at LRRK2^RCKW (log[inhibitor(mol)] -5.60206); 62.4187% and 38.0646% on LRRK2^RCKW (log[inhibitor(mol)] -6.30103); 95.7707% and 92.6957% at LRRK2^RCKW (log[inhibitor(mol)] -6.90309); 101.552% and 99.1095% at LRRK2^RCKW (log[inhibitor(mol)] -7.30103); 102.657% and 105.64% at LRRK2^RCKW (log[inhibitor(mol)] -7.60206); 106.745% and 99.576% on LRRK2^RCKW (log[inhibitor(mol)] -8.09691). The “normalized response (LRRK2 activity)” value at LRRK2^RCKW (log[inhibitor(mol)] -8.61979) was 101.35% and 101.951%; on LRRK2^RCKW (log[inhibitor(mol)] -9.09691), 104.075% and 108.101%; on LRRK2^RCKW (log[inhibitor(mol)] -9.39794), 110.679% and 104.597%.
With `O=C(Nc1cccc(-c2c[nH]c3ncnc(N4CCOCC4)c23)c1)C1(C(=O)Nc2ccc(F)c(F)c2)CC1` [Compound 17], at LRRK2^KW, the “∆Tm (K)” value was determined as 10.3 K. On LRRK2^RCKW, this molecule yielded an IC50 of 253 ± 33 nM. Moreover, the “normalized response (LRRK2 activity)” value at LRRK2^RCKW (log[inhibitor(mol)] -4.82391) was -1.222% and -11.0979%; on LRRK2^RCKW (log[inhibitor(mol)] -5.12494), -9.447% and -10.6928%; on LRRK2^RCKW (log[inhibitor(mol)] -5.60206) it was 0.9319% and 1.085%; on LRRK2^RCKW (log[inhibitor(mol)] -6.30103) it was 26.1821% and 29.3798%; at LRRK2^RCKW (log[inhibitor(mol)] -6.90309), 67.0342% and 72.3494%; at LRRK2^RCKW (log[inhibitor(mol)] -7.30103) it was 85.8031% and 94.494%. Also, the “normalized response (LRRK2 activity)” value on LRRK2^RCKW (log[inhibitor(mol)] -7.60206) is 98.3853% and 103.983%; at LRRK2^RCKW (log[inhibitor(mol)] -8.09691) it was 103.068% and 102.123%; at LRRK2^RCKW (log[inhibitor(mol)] -8.61979), 111.403% and 110.329%; on LRRK2^RCKW (log[inhibitor(mol)] -9.09691), 113.398% and 109.795%; on LRRK2^RCKW (log[inhibitor(mol)] -9.39794) it was 105.315% and 104.756%.
